Common to all, as to assay: NCI tumour cell line growth inhibition, 48 h
For experiment [1], the system named is HL-60(TB) leukemia.
The subject of experiment [2] is MALME-3M melanoma.
Experiment [3] relates to SN12C renal.
Experiment [4] relates to SNB-75 CNS.
Experiment [5] relates to SF-295 CNS.
Experiment [6] concerns SF-268 CNS.
Experiment [7] relates to U251 CNS.
The test system of experiment [8] is PC-3 prostate.
The subject of experiment [9] is NCI-H23 lung.
The subject of experiment [10] is OVCAR-3 ovarian.

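Exposure lasted 48 hours, with cells grown in 96-well plates and compounds tested at five concentrations. TGI: concentration producing complete growth inhibition.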

`CC(=O)OC/C=C/Cn1nc(Br)c(=O)[nH]c1=O`: the TGI in experiment [1], in experiment [2], in experiment [3], in experiment [4], in experiment [5] and in experiment [6] was more than 100 µM throughout. Further, the TGI in [7], in experiment [8], in experiment [9] and in experiment [10] was more than 100 µM in each case.

Turning to `CC(C)=C[C@@H]1C[C@H](C)[C@H]2CC[C@H](C)[C@H]3C(=O)C(O)=C(C)C(=O)[C@]123`, the TGI in experiment [1], in experiment [2], in experiment [3], in [4], in experiment [5] and in experiment [6] was more than 100 µM in each case. Besides, the TGI in [7], in experiment [8], in experiment [9] and in experiment [10] was more than 100 µM throughout.

As to `CC(C)(C)OC(=O)NCCCCC1NC(=O)[C@@H]2Cc3c([nH]c4ccccc34)C(c3ccccc3)N2C1=O` (some centres undefined), the TGI in experiment [1] is 52.3 µM; in [2] it was more than 100 µM; in experiment [3] it was 79.6 µM; in experiment [5], 45.4 µM; in [6], more than 100 µM; in experiment [7], more than 100 µM. For the same compound, the TGI in experiment [8] is more than 100 µM; in [9], more than 100 µM; in experiment [10], 49.2 µM.

As for `CCCCN1/C(=N/Nc2n[nH]c(=O)c3ccccc23)SCC1c1ccc(Cl)cc1` (centres undefined), the TGI was more than 100 µM in experiment [1]; 62 µM in [2]; more than 100 µM in experiment [3]; 64 µM in experiment [4]; 22.6 µM in experiment [5]; 43.9 µM in experiment [6]. For the same compound, the TGI was 21.2 µM in experiment [7], more than 100 µM in [8], 14.7 µM in [9] and 37.6 µM in experiment [10].

With `Nc1c(/C=C/c2cc3cc(C4=NCCN4)ccc3o2)[nH]c2cc(C3=NCCN3)ccc12`, the TGI in experiment [1], in [3], in [4], in [5], in experiment [6] and in experiment [7] was more than 100 µM each time. Further, the TGI in [8], in experiment [9] and in [10] was more than 100 µM throughout.

`CO[C@@H](c1ccccc1)[C@H](O)[C@@](O)(c1ccccc1)P(=O)(OC)OC`: the TGI in experiment [1], in [2], in [3], in experiment [4], in experiment [5] and in experiment [6] was more than 100 µM in each case. The TGI in experiment [7], in [8], in experiment [9] and in experiment [10] was more than 100 µM throughout.

As to `CO/C(N)=C(\C#N)N=Cc1cccs1`, the TGI in experiment [1] is 65.4 µM; in [2], more than 100 µM; in experiment [3], more than 100 µM; in [4], more than 100 µM; in experiment [5] it was more than 100 µM; in [6] it was more than 100 µM. Further, the TGI in [7], in experiment [8], in experiment [9] and in experiment [10] was more than 100 µM throughout.

`CC(=O)Oc1c(OC(C)C)cc(=O)n2ccsc12`: the TGI is 58.7 µM in experiment [1]; more than 100 µM in experiment [2]; more than 100 µM in experiment [3]; more than 100 µM in experiment [4]; more than 100 µM in [5]; more than 100 µM in experiment [6]. Further, the TGI in experiment [7], in [8], in [9] and in experiment [10] was more than 100 µM each time.

As for `CCOC(=O)c1ccc(-c2cccs2)[nH]1`, the TGI in experiment [1], in experiment [2], in experiment [3], in experiment [4], in experiment [5] and in experiment [6] was more than 100 µM throughout. The TGI in experiment [7], in experiment [8], in experiment [9] and in experiment [10] was more than 100 µM in each case.

Consider `O=C1Cc2c([nH]c3c(Br)cccc23)-c2ccccc2N1`, for which the TGI in experiment [1] is 73.8 µM; in experiment [2], more than 100 µM; in [3], more than 100 µM; in experiment [4], more than 100 µM; in experiment [5], more than 100 µM; in experiment [6] it was more than 100 µM. The TGI in [7], in experiment [8], in experiment [9] and in experiment [10] was more than 100 µM in each case.

Regarding `CN(C)c1ccc(/C=C2\CCCCCC2=O)cc1`, the TGI in [1], in experiment [2], in [3], in experiment [4], in [5] and in [6] was more than 100 µM in each case. For the same compound, the TGI in experiment [8] and in experiment [10] was more than 100 µM in each case.

For `CCCCSC1=N/C(=C\c2ccccc2O)C(Cl)=N1`, the TGI in experiment [1], in experiment [2], in experiment [3], in experiment [4], in experiment [5] and in [6] was more than 100 µM in each case. Also, the TGI in experiment [7], in [8], in experiment [9] and in experiment [10] was more than 100 µM in each case.

For `CCN(CCCl)c1ccc(NC(=O)c2cc(C(=O)NCCN(C)C)cc(C(=O)Nc3ccc(N(CC)CCCl)cc3)c2)cc1`, the TGI in experiment [1] was 3.19 µM; in experiment [2], 34.5 µM; in experiment [3] it was 21 µM; in experiment [4], 69.6 µM; in experiment [5], 72.3 µM; in [6], 61.2 µM. The TGI in [7] worked out at 22.1 µM; in [8], 16.3 µM; in [9], 23.5 µM.

Take `CCCCCCCCCCCCCCCC(=O)OCC(COP(=O)(O)OCCNC(=O)CCSSc1ccccn1)OC(=O)CCCCCCCCCCCCCCC` (centres undefined): the TGI in experiment [1], in experiment [2], in experiment [3], in experiment [4], in [5] and in experiment [6] was more than 100 µM throughout. Also, the TGI in experiment [7], in experiment [8], in experiment [9] and in [10] was more than 100 µM throughout.

As to `COc1cc(O)c2c(=O)c(O)c(-c3ccc(O)c(O)c3)oc2c1`, the TGI was 12.8 µM in experiment [1]; 69.3 µM in experiment [2]; 72.3 µM in [5]; 73.7 µM in [6]; 24.7 µM in [7]; more than 100 µM in experiment [8]. Besides, the TGI in experiment [10] was 21.8 µM.

As for `O=C1C[C@@]23CCC4(CC2=CCC[C@H]3O1)OCCO4`, the TGI in experiment [1], in experiment [2], in experiment [3], in experiment [5], in experiment [6] and in [7] was more than 100 µM each time. Further, the TGI in experiment [8], in experiment [9] and in experiment [10] was more than 100 µM throughout.

Turning to `CSC(=NCCCN=C(NS(=O)(=O)c1ccc(Cl)cc1)SC)NS(=O)(=O)c1ccc(Cl)cc1`, the TGI in experiment [1] was 47.1 µM; in [2], 72.7 µM; in experiment [3], more than 100 µM; in experiment [4], more than 100 µM; in [5] it was more than 100 µM; in experiment [6], more than 100 µM. In addition, the TGI in experiment [7] is more than 100 µM; in experiment [8], 35.2 µM; in experiment [10], 80 µM.

Turning to `COc1ccc(NC(=S)Nc2cccc(C)n2)cc1`, the TGI in [1], in experiment [4], in experiment [5], in experiment [6], in experiment [7] and in [8] was more than 100 µM in each case. Also, in [9], the TGI was more than 100 µM.

With `C[C@@H](c1ccccc1)N(CC#N)[C@H]1CCC[C@]1(O)/C=C/c1ccc2c(c1)OCO2`, the TGI in [1], in [2], in experiment [3], in experiment [4], in experiment [5] and in experiment [6] was more than 25 µM in each case. Further, the TGI in experiment [7], in experiment [8] and in [9] was more than 25 µM throughout.

Regarding `CC(C)[C@H](NC(=O)OCc1ccccc1)C(=O)N[C@H](/C=C/C(=O)OC(C)(C)C)CO`, the TGI in experiment [1], in [2], in experiment [3], in [5], in experiment [6] and in experiment [8] was more than 100 µM throughout. The TGI in [9] and in experiment [10] was more than 100 µM throughout.

Turning to `Nn1c(=S)[nH]nc(/C=C/c2c(O)ccc3ccccc23)c1=O`, the TGI is 4.14 µM in experiment [1]; 44.6 µM in [2]; 96.1 µM in experiment [5]; 38.6 µM in experiment [6]; more than 100 µM in experiment [7]; more than 100 µM in experiment [8]. For the same compound, the TGI stood at 11 µM in experiment [9] and 22.1 µM in experiment [10].

On to `CC(C)S1=C2C(=O)CC(C)(C)CC2=Nc2ccccc21` (centres undefined), for which the TGI in experiment [2], in experiment [3], in experiment [4], in [5], in [6] and in experiment [7] was more than 100 µM in each case. The TGI in [8], in experiment [9] and in experiment [10] was more than 100 µM in each case.

`CC1SCCc2nc3ccccc3n21` (centres undefined): the TGI in experiment [1], in experiment [3], in experiment [4], in experiment [5], in [6] and in [7] was more than 100 µM throughout. In addition, the TGI in experiment [8], in experiment [9] and in experiment [10] was more than 100 µM each time.

For `COc1ccc(-c2cc(-c3ccc(Nc4ccnc5cc(C(F)(F)F)ccc45)cc3)nc(N)c2C#N)c2ccccc12`, the TGI in experiment [1], in experiment [2], in experiment [4], in experiment [5], in experiment [6] and in [7] was more than 100 µM in each case. Also, the TGI in experiment [8], in [9] and in experiment [10] was more than 100 µM in each case.

Turning to `CC(=O)OC1C(C)OC(OC2C[C@](O)(C(C)=O)Cc3c(O)c4c(c(O)c32)C(=O)c2ccccc2C4=O)C(F)C1OC(C)=O` (some centres undefined), the TGI came to 4.08 µM in [2]; 7.76 µM in [3]; 4.33 µM in [4]; 1.47 µM in experiment [5]; 24.6 µM in experiment [6]; 3.65 µM in experiment [7]. Also, the TGI in experiment [8] is 22.4 µM; in experiment [9], 1.81 µM; in [10], 9.9 µM.

Consider `CCCSC1=N/C(=C\c2ccco2)C(=O)N1`, for which the TGI in experiment [2], in experiment [3], in experiment [4], in [5], in [6] and in experiment [7] was more than 100 µM throughout. In addition, the TGI in experiment [8], in experiment [9] and in [10] was more than 100 µM each time.

As for `N/N=C(\N)SCc1ccc(N=C=S)cc1`, the TGI in experiment [1], in [2], in experiment [3], in experiment [4], in experiment [5] and in experiment [6] was more than 100 µM throughout. For the same compound, the TGI in experiment [7], in [8] and in experiment [9] was more than 100 µM each time.

For `CCOC(=O)C1(NC(=O)OC(C)(C)C)CCc2[nH]oc(=O)c2C1` (centres undefined), the TGI in [1], in experiment [2], in experiment [3], in [4], in experiment [5] and in experiment [7] was more than 100 µM each time. Besides, the TGI in experiment [8], in [9] and in experiment [10] was more than 100 µM in each case.

As to `CCOC(=O)c1sc2nc(SC)nc3c2c1NCN3c1ccccc1Cl`, the TGI was 74.4 µM in experiment [2]; more than 100 µM in experiment [3]; 64.9 µM in [4]; more than 100 µM in experiment [5]; more than 100 µM in [6]; more than 100 µM in [7]. Moreover, the TGI in experiment [8], in experiment [9] and in experiment [10] was more than 100 µM each time.

The values above are taken from PubChem BioAssay (NCI).
